The values that follow come from ChEMBL document CHEMBL4622855, “Secondary metabolites from Isodon ternifolius (D. Don) Kudo and their anticancer activity as DNA topoisomerase IB and Tyrosyl-DNA phosphodiesterase 1 inhibitors” (Bioorg Med Chem, 2020).

Activity calls are given as the source filed them. The calls are words filed in the database; no cut-off is given here.

In one assay the test system is MCF7. The assay can be described thus: Cytotoxicity against human MCF7 cells assessed as reduction in cell viability after 72 hrs by MTT assay. The format is functional. The conditions noted are these: MCF7, 72 h. (In general: Tetrazolium assays rely on reduction of a dye to a coloured formazan, in cell work by metabolically active cells.)
A further assay relates to HCT-116. The assay can be described thus: Cytotoxicity against human HCT116 cells assessed as growth inhibition after 72 hrs by MTT assay. The format is functional. The conditions noted are these: HCT-116, 72 h.
In the next assay the test system is A549. The assay can be described thus: Cytotoxicity against human A549 cells assessed as growth inhibition after 72 hrs by MTT assay. The format is functional. Conditions: A549, 72 h.
Assay [1] deals with T1, DNA topoisomerase I (Bos taurus) (UniProt F1MN93).
T1 sequence (whole entry): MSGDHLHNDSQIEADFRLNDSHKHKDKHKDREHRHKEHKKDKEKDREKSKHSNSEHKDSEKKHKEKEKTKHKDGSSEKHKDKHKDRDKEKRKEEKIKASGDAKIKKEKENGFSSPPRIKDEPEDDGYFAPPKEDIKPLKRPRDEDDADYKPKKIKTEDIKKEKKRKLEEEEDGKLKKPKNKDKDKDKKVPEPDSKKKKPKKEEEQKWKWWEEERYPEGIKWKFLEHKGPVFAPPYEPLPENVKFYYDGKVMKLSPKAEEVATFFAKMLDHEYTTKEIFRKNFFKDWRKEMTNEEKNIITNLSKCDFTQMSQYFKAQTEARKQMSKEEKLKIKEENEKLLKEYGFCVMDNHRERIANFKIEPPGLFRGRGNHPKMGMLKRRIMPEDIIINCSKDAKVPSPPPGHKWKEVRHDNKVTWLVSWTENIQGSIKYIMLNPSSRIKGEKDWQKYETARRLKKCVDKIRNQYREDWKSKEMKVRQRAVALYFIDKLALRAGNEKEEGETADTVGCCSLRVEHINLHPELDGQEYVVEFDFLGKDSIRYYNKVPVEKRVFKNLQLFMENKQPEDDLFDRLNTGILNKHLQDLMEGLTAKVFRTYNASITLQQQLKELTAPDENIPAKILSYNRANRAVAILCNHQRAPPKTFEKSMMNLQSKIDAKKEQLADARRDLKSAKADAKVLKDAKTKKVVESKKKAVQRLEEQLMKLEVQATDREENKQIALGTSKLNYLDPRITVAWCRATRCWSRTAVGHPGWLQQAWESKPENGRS
The assay can be described thus: Inhibition of calf thymus Top1 assessed as reduction in supercoiled pBR322 DNA relaxation at 100 uM measured after 30 mins by agarose gel electrophoresis relative to camptothecin.

The target of assay [2] is Tyrosyl-DNA phosphodiesterase 1 (Homo sapiens, UniProt Q9NUW8). The assay can be described thus: Inhibition of TDP1 (unknown origin) expressed in Escherichia coli BL21 (DE3) using 5'-FAM-AGGATCTAAAAGACTT-BHQ-3' as substrate preincubated for 30 mins followed by substrate addition by fluorescence assay.
Sequence of Tyrosyl-DNA phosphodiesterase 1 (Q9NUW8 whole entry): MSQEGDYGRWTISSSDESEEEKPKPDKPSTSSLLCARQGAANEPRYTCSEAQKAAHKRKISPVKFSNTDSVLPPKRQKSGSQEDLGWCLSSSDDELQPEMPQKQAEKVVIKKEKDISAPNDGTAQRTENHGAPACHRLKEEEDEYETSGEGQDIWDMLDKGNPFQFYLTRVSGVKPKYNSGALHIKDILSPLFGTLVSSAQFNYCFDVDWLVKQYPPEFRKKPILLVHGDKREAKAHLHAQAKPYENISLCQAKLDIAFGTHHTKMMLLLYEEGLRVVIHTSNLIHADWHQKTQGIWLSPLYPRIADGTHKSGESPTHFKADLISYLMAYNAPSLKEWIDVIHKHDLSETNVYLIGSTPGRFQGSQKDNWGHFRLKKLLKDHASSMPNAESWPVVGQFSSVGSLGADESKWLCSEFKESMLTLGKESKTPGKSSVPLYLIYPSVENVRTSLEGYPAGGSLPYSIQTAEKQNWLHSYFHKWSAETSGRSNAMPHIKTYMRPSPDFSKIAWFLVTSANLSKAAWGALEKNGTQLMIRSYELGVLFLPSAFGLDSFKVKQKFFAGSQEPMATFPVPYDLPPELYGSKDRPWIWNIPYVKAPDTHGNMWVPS
The target in assay [3] is T1, DNA topoisomerase I (Bos taurus). The assay can be described thus: Inhibition of calf thymus Top1 assessed as reduction in Top1-supercoiled pBR322 DNA covalent cleavage formation at 25 to 50 uM measured after 30 mins by electrophoretic mobility shift assay.
Assay [4] shares this target. The assay can be described thus: Inhibition of calf thymus Top1-mediated supercoiled pBR322 DNA cleavage assessed as nicked DNA content at 25 uM measured after 30 mins by ethidium bromide staining agarose gel electrophoresis. Details: scale not given: the % may be the effect or the level left.
The target is the same in assay [5]. The assay can be described thus: Inhibition of calf thymus Top1 assessed as reduction in supercoiled pBR322 DNA relaxation measured after 30 mins by agarose gel electrophoresis.
The target is the same in assay [6]. The assay can be described thus: Inhibition of calf thymus Top1-mediated supercoiled pBR322 DNA cleavage assessed as nicked DNA content at 50 uM measured after 30 mins by ethidium bromide staining agarose gel electrophoresis. On the set-up: scale not given: the % may be the effect or the level left.

What is called GI50 is the concentration that inhibits growth by half. What is called inhibition is the relative decrease from the control value, in per cent. For the molecule `C[C@@H]1CC[C@@]23CC[C@]4(C)[C@@](C=C[C@@H]5[C@@]6(C)CC[C@H](O)C(C)(C)[C@@H]6CC[C@]54C)(OC2=O)C3[C@H]1C` (stereo partly drawn), the GI50 in the assay with MCF7, in the assay on HCT-116 and with A549 was greater than 100 µM throughout. The inhibition in assay [1] was determined as 0%.
Broadly, the IC50 is the concentration that inhibits the measured activity by half. Consider `C=C1C(=O)O[C@H]2C3=CC[C@@H]4C(C)(C)[C@H](O)CC[C@@]4(C)[C@@H]3CC[C@@H]12`, for which the concentration for 50% growth inhibition (GI50) in the assay with MCF7 worked out at 53 µM; with HCT-116, 35 µM; with A549 it was 35 µM. Besides, the inhibition in assay [1] fell in the range of 30 to 59%. In addition, the IC50 in [2] was greater than 100 µM.
With `COc1cc(/C=C/C(=O)O[C@H]2[C@H](O)C[C@]3(C)[C@H]4CC=C5[C@@H]6CC(C)(C)CC[C@]6(C(=O)O)CC[C@@]5(C)[C@]4(C)CC[C@H]3C2(C)C)ccc1O`, the inhibition result in assay [3] was “Active”. Further, the GI50 in the assay with MCF7 came out at 67 µM; in the assay on HCT-116 it was 22 µM; in the assay with A549, 59 µM. Moreover, the Activity in [4] came out at 9%; in assay [6], 10%. In addition, the inhibition entry in assay [5] was “Dose-dependent effect”; in [1] it was greater than 90%. This molecule displayed an IC50 in assay [2] greater than 100 µM.
`CC(=O)O[C@H]1CC[C@]2(C)[C@H]3CC=C4[C@H]5[C@](C(=O)O)(CC[C@@H](C)[C@@]5(C)O)CC[C@@]4(C)[C@]3(C)CC[C@H]2C1(C)C`: the GI50 in the assay on MCF7, with HCT-116 and in the assay on A549 was greater than 100 µM each time. Besides, the inhibition in [1] worked out at 0%. The molecule also yielded an IC50 in assay [2] greater than 100 µM.
Take `CC1(C)CC[C@]2(C(=O)O)CC[C@]3(C)C(=CC[C@@H]4[C@@]5(C)C[C@@H](O)[C@H](O)[C@](C)(CO)[C@@H]5CC[C@]43C)[C@@H]2C1`: the concentration for 50% growth inhibition (GI50) turned out to be 14 µM in the assay on MCF7, 29 µM in the assay with HCT-116 and 22 µM in the assay on A549. Moreover, the inhibition in assay [1] lay in the range of 60 to 89%.
Turning to `C[C@@H]1CC[C@]2(C(=O)O)CC[C@]3(C)C(=CC[C@@H]4[C@@]5(C)C[C@@H](O)OCC(C)(C)[C@@H]5CC[C@]43C)[C@@H]2[C@]1(C)O`, the GI50 was greater than 100 µM with MCF7, 23 µM with HCT-116 and greater than 100 µM with A549. Also, the inhibition in [1] was less than 29%. The IC50 in assay [2] was greater than 100 µM.
For the molecule `CC(C)c1cc2c(cc1O)[C@@]1(C)CCC[C@](C)(CO)[C@@H]1CC2`, the GI50 in the assay with MCF7 stood at 92 µM; with HCT-116 it was 51 µM; in the assay on A549 it was 91 µM. The inhibition in [1] is 30 to 59%. The 50% inhibitory concentration (IC50) in assay [2] was greater than 100 µM.
Consider `C=C1C(=O)O[C@H]2C3=CC[C@@H]4[C@](C)(CO)CCC[C@@]4(C)[C@@H]3CC[C@@H]12`, for which the GI50 in the assay on MCF7 stood at 40 µM; in the assay with HCT-116 it was 42 µM; in the assay with A549, 51 µM. Also, the inhibition in [1] lay within 30 to 59%.
The corresponding values for `CC1(C)CC[C@]2(C(=O)O)CC[C@]3(C)C(=CC[C@@H]4[C@@]5(C)C[C@@H](O)[C@@H](O)[C@@](C)(CO)[C@@H]5CC[C@]43C)[C@@H]2C1` are greater than 100 µM, greater than 100 µM, greater than 100 µM and 0%.
Consider `C=C1C(=O)[C@]23C[C@H]1CC[C@H]2[C@]1(C)CC[C@@H](O)C(C)(C)[C@H]1C[C@@H]3O`, for which the GI50 with MCF7 amounted to 3.5 µM; with HCT-116 it was 2.7 µM; with A549 it was 4.8 µM. Besides, the inhibition in [1] fell in the range of 60 to 89%. Besides, the IC50 in assay [2] is greater than 100 µM.
The corresponding values for `C=C1C(=O)O[C@H]2C3=CC[C@@H]4C(C)(C)C(=O)CC[C@@]4(C)[C@@H]3CC[C@@H]12` are 15 µM, 31 µM, 51 µM, 60 to 89% and greater than 100 µM.
Regarding `CC(=O)O[C@H]1CC[C@]2(C)[C@H]3CC=C4[C@@H]5[C@@H](C)[C@H](C)CC[C@]5(C(=O)O)CC[C@@]4(C)[C@]3(C)CC[C@H]2C1(C)C` [O-ACETYLURSOLIC ACID], the GI50 with MCF7 stood at 6.5 µM; with HCT-116, 21 µM; with A549 it was 48 µM. The inhibition in [1] was greater than 90%.
On to `C[C@H]1[C@H](C)CC[C@]2(CO)CC[C@]3(C)C(=CC[C@@H]4[C@@]5(C)CC[C@H](O)C(C)(C)[C@@H]5CC[C@]43C)[C@H]12` [UVAOL], for which the results for the GI50 in the assay with MCF7, in the assay with HCT-116 and with A549 were 93 µM, 37 µM and 45 µM, respectively. Moreover, the inhibition in assay [1] lay within 30 to 59%. This molecule also yielded an IC50 in [2] greater than 100 µM.
The corresponding values for `CC1(C)CC[C@]2(C(=O)O)CC[C@]3(C)C(=CC[C@@H]4[C@@]5(C)C[C@@H](O)[C@@H](O)C(C)(C)[C@@H]5CC[C@]43C)[C@@H]2C1` are greater than 100 µM, 51 µM, greater than 100 µM, 30 to 59% and greater than 100 µM.
In the case of `CC1(C)CC[C@]2(C(=O)O)CC[C@]3(C)C(=CC[C@@H]4[C@@]5(C)CC[C@H](O)C(C)(C)[C@@H]5CC[C@]43C)[C@@H]2C1` [OLEANOLIC_ACID], the GI50 in the assay on MCF7, with HCT-116 and in the assay with A549 was greater than 100 µM in each case. For the same molecule, the inhibition in assay [1] stood at 0%.
Consider `CC(C)c1ccc2c(c1O)CC[C@@H]1[C@@](C)(CO)CCC[C@@]21C`, for which the GI50 in the assay on MCF7, with HCT-116 and in the assay with A549 was greater than 100 µM each time. Also, the inhibition in assay [1] is 0%. Besides, in assay [2], the IC50 is greater than 100 µM.
As for `C[C@@H]1CC[C@]2(C(=O)O)CC[C@]3(C)C(=CC[C@@H]4[C@@]5(C)C[C@@H](O)[C@@H](O)C(C)(C)[C@@H]5CC[C@]43C)[C@@H]2[C@]1(C)O` [EUSCAPHIC ACID], the results for the GI50 in the assay with MCF7, in the assay on HCT-116 and with A549 were 41 µM, 22 µM and 43 µM, respectively. The inhibition in assay [1] is greater than 90%. For the same molecule, the half-maximal inhibitory concentration (IC50) in assay [2] was greater than 100 µM.
The corresponding values for `CO[C@@H]1C[C@]2(C)[C@H]3CC=C4[C@H]5[C@](C(=O)O)(CC[C@@H](C)[C@@]5(C)O)CC[C@@]4(C)[C@]3(C)CC[C@H]2C(C)(C)CO1` are 31 µM, 37 µM, 63 µM, 30 to 59% and greater than 100 µM.
The corresponding values for `CC1(C)CC[C@]2(C(=O)O)CC[C@]3(C)C(=CC[C@@H]4[C@@]5(C)C[C@H](O)[C@H](O)[C@@](C)(COC(C)(C)O)[C@@H]5CC[C@]43C)[C@@H]2C1` are 11 µM, 55 µM, 37 µM, 60 to 89% and greater than 100 µM.
As to `CC(C)c1ccc(O)c2c1CC[C@H]1[C@@](C)(C(=O)O)CCC[C@]21C`, the GI50 with MCF7 was 60 µM; in the assay with HCT-116, 31 µM; in the assay with A549, 41 µM. Also, the inhibition in assay [1] lay in the range of 30 to 59%. The same molecule showed an IC50 in assay [2] greater than 100 µM.
In the case of `C[C@H]1[C@H](C)CC[C@]2(C(=O)O)CC[C@]3(C)C(=CC[C@@H]4[C@@]5(C)C[C@@H](O)[C@H](O)C(C)(C)[C@@H]5CC[C@]43C)[C@H]12` [COROSOLIC ACID], the figures for the GI50 in the assay on MCF7, in the assay with HCT-116 and with A549 were 62 µM, greater than 100 µM and greater than 100 µM, respectively. Besides, the inhibition in assay [1] is less than 29%. The IC50 in [2] is greater than 100 µM.
In the case of `CC(C)c1cc2c(cc1O)[C@]1(C)CCC[C@](C)(C(=O)O)[C@H]1CC2`, the GI50 with MCF7 was 60 µM; in the assay on HCT-116, 68 µM; in the assay with A549 it was 36 µM. Further, the inhibition in [1] lay within 30 to 59%. In addition, in assay [2], the IC50 was greater than 100 µM.
